Experimental findings from publication PMC6452685, “Lysyl-tRNA synthetase as a drug target in malaria and cryptosporidiosis” (Proceedings of the National Academy of Sciences of the …, 2019) are described below.

Bounds are passed on as bounds.

Data set [1] can be described thus: Intrinsic clearance in human liver microsomes. The format is in vitro ADME. For orientation: Microsomes from liver hold many membrane-bound enzymes, among them those of drug oxidation.
The subject of data set [2] is P. berghei liver schizonts. Briefly: P. berghei liver schizonts (luciferase). Format: cell-based. The settings on record: Plasmodium berghei. On the procedure: Thi s i s bas ed on met hods prev i ous l y report ed (12 ). In bri ef, HepG 2-A1 6-CD81EGFP cel l s were cul tured at 3 7 °C i n 5% C O2 in DMEM me dia. For both P. berghei-Luc and HepG2 cytotoxi ci ty assays, 3x 10**3 of the HepG2-A16-CD81EGFP20 cells in 5 µl of assay medi um (DMEM wi thout Phenol Red (Li fe Techn ol ogi es, CA), 5% FBS, and 5x Pen Stre p Gl utami ne (Li fe Techn ol ogi es, CA)) at concentrati o n 6x 10**5 cel l s /ml were s eeded i n white s oli d bottom 153 6-well pl at es (cus t om G NF mol d ref# 7891 73-F, Grei ner Bi o-One), 2 0-26 h prior to sporozoites infection. […]
pri or t o i nfect i on 5 0 nl of comp ounds i n 1:3 s eri al di l ut i ons in DMSO (0. 5% fi nal DMSO concentrati on per w el l ) w ere t rans ferred w i t h an Acous ti c Trans fer Sy s t em (ATS) (Bi os ero) t o the cells. Atovaquone (5µ M) and pu romy ci n (1 0 µM) at a single concentration were used as pos i t i v e cont rol s for the Pbluc and He pG 2tox , res pecti v el y . 0. 5% DMSO was us ed as neg ati v e control for both as s ay s . […]
[…] Immediately after addition of the luminescence reagent, the luminescence was measured by the Env i s i on M ul t il abel Reader (Perk i nEl mer). […]
Thi s is a modification of the previously reported method (13). […]

For data set [3], the system named is P. falciparum stage V gametocytes. Briefly: P. falciparum stage V gametocytes. Format: cell-based. The settings on record: Plasmodium falciparum.
Description: Thi s is a modification of the previously reported method (13). Asexual P. falciparum paras i t es (NF54) from a cl one G 3 w ere g row n at 5% hemat ocri t i n O+ human ery t hrocy t es i n s erum-contai ni ng compl ete medi a (RPMI 1640, g entami ci n 0. 05 mg /ml , hy pox anthi ne 0. 05 mg/ml, HEPES 38.4 mM , sodium bicarbonate 0.2% [w/v], D-glucose 0.2% [w/v], sodium hydroxide 3.4 mM, 11.9% [w/v] heat-inactivated human serum [O+] and at 37 °C un de r l ow-ox y g en con di t i ons (3% O2, 5% C O2, and 92% N2) and a paras i temi a between 0. 5% and 3%. Ri ng-stage parasites were synchronized at 3%
paras i t aemi a (d-6) w i t h 5% (w /v ) D-Sorbi tol . On day −4, 45ml of compl ete medi a was added to the
cul ture fl as k to s tres s vi a hematocri t drop now at 2. 5%. The o n d-3 an d d-2 onl y 45 ml o f the medi a
was substituted for fres h medi a.
Data set [4] relates to P. falciparum male/female gamete formation. Briefly: P. falciparum male/female gamete formation. The format is cell-based. The settings on record: Plasmodium falciparum.
Description: Thi s i s bas ed on methods previ ousl y reported (14). Mature P. falciparum stage V gametocytes (NF54)
were incubated with test compound for 24 h at 3 7°C i n 384-well plates containing complete culture
medi um (RPMI 1640, 25 mM HEPES, 2 g/l D-glucose, 2 g/l sodium bicarbonate, 50 mg/l
Gametogenesis was triggered by dis pens i ng 10 µl ookinete medium (RPMI 1640, 25 mM HEPES, 2 g/l
D-glucose, 2 g/l sodium bicarbonate, 50 mg/l hy pox ant hi ne, 100 µM xanthurenic acid) also
contai ni ng 2. 7 µg/ml anti-Pfs25-Cy3 into each well and cooling the plate on a metal block at 4 °C fo r
4 mi n. Fi fteen s l ater male gametogenesis was recorded by b ri ghtfi el d i magi ng usi ng ti m e s 6 object i v e
and then the pl ate stored at 2 6 °C for a fu rther 24 h to allow female gametes to develop. Female
gamete formation was assessed by fluorescence m icroscopy using x6 objective to identify anti-Pfs25-
gentian violet negative and positive controls.
3.1 3 Act iv it y a gains t Cry pt os pori diu m h omi nis (CALIBR)
Thi s i s bas ed on methods previ ousl y reported (10).
Another data set has as its target T1, CYP3A4 (Homo sapiens, UniProt P08684).
T1 construct: purchased Cypex, Dundee, UK; host or cells: bacterial membranes (bactosomes)
Briefly: Fluorescence-based CYP inhibition, CYP3A4. The format is in vitro ADME. The procedure:
4.7 F lu or e s ce nce-based CYP I nhibition usin g recombinantly expressed CYP b actosomes Fl uorogeni c C YP i nhi bi t i on s t udi es w ere c ondu ct ed at 37 °C i n 96-well, flat-bot t om, cl ear p ol y s t y rene pl at es. I ncubat i on mi xt ures cont ai ni ng Eas y C YP bact os omes (1000 pmol /ml , 10 mg /ml C y pex TM, Dundee, UK), fl uorogeni c substrate (Cypex TM) and 50 mM potas s i um phosphat e buffer (p H 7. 4) w er e prepared at t he fol l ow i ng fi nal concent rat i ons : C YP1A2, 5 pmol /ml + 35 µ M et hox y res orufi n (ER) ; CYP2C9, 10 pm ol/ml + 30 µM 7-methoxy-4-(tri fl uo romethy l )-coumari n (MFC ); C YP 2C 19, 5 pm ol /ml + 25 µM 3-cy ano-7-eth oxycoumarin (CEC); C YP 2D 6, 10 pmol /ml + 6 µM 7-meth oxy-4-(ami nomethy l )- coumari n (MAMC ); C YP 3A4, 10 pmol /ml + 1 µM diethoxyfluorescein (DEF) and 10 pmol /ml + 15 µM 7-benz y l ox y qui nol i ne (BQ ). […] 0125 ( 1A2 and 2C 9 onl y ) o r 0. 025 mg /ml (al l ot her i s oforms ). […] Positive control inhibitor, miconazole, was prepared as a 500 µM s olution in DMSO and similarly diluted.
For eac h i sofo rm, 2 20 µl of i ncubati on mi x was added to each wel l of a 96-well, flat-bot t om, cl ear pol y s t y rene pl at e. Al i quot s (5 µl) of each compound 5 conce ntrati on was then mi x ed wi th 220 µl of the incubation mix and pre-incubated at 37 °C for 5 min (final test compound concentration range: […]

T1 sequence (P08684 whole entry): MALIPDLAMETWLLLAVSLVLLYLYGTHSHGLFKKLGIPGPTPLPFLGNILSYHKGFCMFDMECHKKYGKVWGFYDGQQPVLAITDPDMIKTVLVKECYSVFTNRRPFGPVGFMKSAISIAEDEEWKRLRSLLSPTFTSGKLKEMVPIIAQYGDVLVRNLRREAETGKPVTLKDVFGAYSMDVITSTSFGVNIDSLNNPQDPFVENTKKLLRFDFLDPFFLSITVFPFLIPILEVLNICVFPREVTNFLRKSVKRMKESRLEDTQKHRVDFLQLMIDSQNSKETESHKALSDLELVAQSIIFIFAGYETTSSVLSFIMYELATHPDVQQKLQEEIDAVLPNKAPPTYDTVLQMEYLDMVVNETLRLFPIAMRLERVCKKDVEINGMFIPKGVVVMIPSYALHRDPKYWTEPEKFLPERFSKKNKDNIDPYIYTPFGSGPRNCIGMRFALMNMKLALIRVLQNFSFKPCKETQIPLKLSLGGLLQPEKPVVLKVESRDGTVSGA

Usually EC50 stands for the concentration that produces a half-maximal response. A word on the IC50: it is the concentration at which inhibition is half-maximal. Take `O=C(NCC1(O)CCC(F)(F)CC1)c1cc(=O)c2cc(F)ccc2o1` [Compound 5]: the “Microsomal stability CLint” value in data set [1] is recorded as less than 0.5 mL⋅min^−1⋅g^−1. Moreover, the concentration giving a half-maximal response (EC50) in data set [2] was 0.9 µM; in data set [3], 9.9 µM; in data set [4], more than 1 µM. The same molecule had an IC50 against CYP3A4 of more than 10 µM.
